# Test results as given in patent US9988430B2, “Stable GLP-1 based GLP-1/glucagon receptor co-agonists” (Novo Nordisk A/S, priority 2014, dated 2018).
# *1 amine or outer side, *2 acyl side, *3 side chain or, on linkers, in order; H or OH if unused. Where a SMILES comes first, the peptide text is derived from it. Bridges are numbered along the chain shown (N, C = ends). Roman numbers before positions name the chains, in order. Side-chain parts run from the residue outwards. [ ]: non-standard residue; d: D form. The star is where a group is joined. C20 diacid = O=C(O)CCCCCCCCCCCCCCCCCCC(=O)*; C18 diacid = O=C(O)CCCCCCCCCCCCCCCCC(=O)*; γGlu = O=C(O)[C@H](CCC(=O)[*:2])N[*:1]; Desaminohistidyl = O=C(CCc1c[nH]cn1)*; Ac4c = NC1(C(=O)O)CCC1; AEEA = NCCOCCOCC(=O)O; Aib = CC(C)(N)C(=O)O
# Target: T1, human GLP-1 receptor (Homo sapiens, UniProt P43220)
# T1 construct: expressed in transfected cells; host or cells: membranes of BHK cells, parent line BHKTS13, clone FCW467-12A
# T1 sequence (P43220 24-463): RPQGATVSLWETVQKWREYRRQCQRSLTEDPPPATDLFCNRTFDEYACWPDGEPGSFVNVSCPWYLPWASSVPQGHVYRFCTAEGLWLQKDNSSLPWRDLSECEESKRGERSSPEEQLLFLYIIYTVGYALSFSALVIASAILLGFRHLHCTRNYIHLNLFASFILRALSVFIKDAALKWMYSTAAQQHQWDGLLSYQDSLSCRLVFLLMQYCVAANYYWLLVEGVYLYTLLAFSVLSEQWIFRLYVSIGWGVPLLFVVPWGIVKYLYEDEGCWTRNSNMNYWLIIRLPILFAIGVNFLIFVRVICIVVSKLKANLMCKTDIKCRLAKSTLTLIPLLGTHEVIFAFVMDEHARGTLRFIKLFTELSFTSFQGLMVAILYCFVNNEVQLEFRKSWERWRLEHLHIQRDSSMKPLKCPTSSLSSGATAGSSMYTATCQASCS
# Test: Assay (II)(a): GLP-1 receptor binding, [125I]GLP-1 displacement, SPA on BHK membranes
# Settings: displacement of [125I]GLP-1, membranes with human GLP-1 receptor; read-out: IC50 GLP-1R
# Procedure: Assay (II): GLP-1 and Glucagon Receptor Binding The purpose of this assay is to test the in vitro receptor binding activity of the GLP-1 derivatives of the invention. (a) GLP-1 Receptor Binding The GLP-1 receptor (GLP-1R) binding is a measure of the affinity of a derivative for the human GLP-1 receptor. The GLP-1 receptor binding of each derivatives were determined with competitive binding, displacing [^125I]GLP-1 bound to GLP-1 receptors expressed in cell membranes associated with wheat germ agglutinin (WGA) scintillation proximity assay (SPA) beads. Each derivative was added in a series of concentrations to isolated membranes comprising the human GLP-1 receptor and displacement of the labelled radioligand was monitored. The receptor binding was reported as the concentration at which half of the labelled ligand is displaced from the receptor, the IC^50 value. The following chemicals were used in the assay: MEM w/o phenol red (Gibco 11880-028), Pen/strep (Invitrogen 15140-122), G418 (Invitrogen 10131-027), 1 M Hepes (Gibco 15630), EDTA (Invitrogen 15575-038), PBS (Invitrogen 14190-094), fetal calf serum (Invitrogen 16140-071), EGTA, MgCl2 (Merck 1.05832.1000), Tween 20 (Amresco 0850C335), SPA particles (wheat germ agglutinin (WGA) SPA beads, Perkin Elmer RPNQ0001), [125I]-GLP-1]-(7-36)NH2 (produced in-house), OptiPlate™-96 (Perkin Elmer). Buffer 1 consisted of 20 mM Na-HEPES plus 10 mM EDTA and pH was adjusted to 7.4. Buffer 2 consisted of 20 mM Na-HEPES plus 0.1 mM EDTA and pH was adjusted to 7.4. Assay buffer consisted of 50 mM HEPES supplemented with 5 mM EGTA, 5 mM MgCl2, 0.005% Tween 20 and pH was adjusted to 7.4. A 0.02% albumin stock consisted of HSA dissolved at 0.02% (w/v) in assay buffer. The cells used in this assay (clone FCW467-12A) were BHK cells with BHKTS13 as a parent cell line. The cells express the human GLP-1 receptor. The cells were grown at 5% CO2 in DMEM, 10% fetal calf serum, 1% Pen/Strep (Penicillin/Streptomycin) and 1.0 mg/ml of the selection marker G418. To make a membrane preparation the cells were grown to approximately 80% confluence. The cells were washed twice in phosphate-buffered saline and harvested. The cells were pelleted using a brief centrifugation and the cell pellet was kept on ice. The cell pellet was homogenised with ULTRA-THURRAX dispersing instrument for 20-30 seconds in a suitable amount of buffer 1 (e.g., 10 ml). The homogenate was centrifuged for 15 minutes. The pellet was re-suspended (homogenised) in 10 ml buffer 2 and centrifuged. This step was repeated once more. The resulting pellet was re-suspended in buffer 2 and the protein concentration was determined. The membranes were aliquoted and stored at minus 80° C. • 1. For the receptor binding assay 50 μl of the assay buffer was added to each well of an assay plate. • 2. Test compounds were serially diluted to give the following concentrations: 8×10EE-7 M, 8×10EE-8 M, 8×10EE-9 M, 8×10EE-10 M, 8×10EE-11 M, 8×10EE-12 M and 8×10EE-13 M. Twenty-five μl were added to appropriate wells in the assay plate. • 3. Cell membrane aliquots were thawed and diluted to their working concentration. Fifty μl were added to each well in the assay plate. • 4. WGA SPA beads were suspended in assay buffer at 20 mg/ml. The suspension was diluted to 10 mg/ml in assay buffer just prior to addition to the assay plate. Fifty μl were added to each well in the assay plate. • 5. The incubation was started by adding 25 μl of 480 pM solution of [125I]-GLP-1]-(7-36)NH2 to each well of the assay plate. A 25 μl aliquot was reserved for measuring total counts/well. • 6. The assay plate was incubated for 2 h at 30° C. • 7. The assay plate was centrifuged for 10 min. • 8. The assay plate was read in a Perkin Elmer TopCount NXT instrument. Calculations The data from the TopCount instrument were transferred to GraphPad Prism software. The software averaged the values for the replicates and performed a non-linear regression. IC50 values were calculated by the software and reported in nM. […]
row,Structure (SMILES),IC50 [nM]
1,"CC[C@H](C)[C@H](NC(=O)[C@H](Cc1ccccc1)NC(=O)[C@H](CCC(=O)O)NC(=O)[C@H](CCCNC(=N)N)NC(=O)[C@H](C)NC(=O)[C@H](C)NC(=O)[C@H](CCCNC(=N)N)NC(=O)CNC(=O)[C@H](CCC(=O)O)NC(=O)[C@H](CC(C)C)NC(=O)[C@H](Cc1ccc(O)cc1)NC(=O)[C@H](CCCCN)NC(=O)[C@H](CO)NC(=O)[C@@H](NC(=O)[C@H](CC(=O)O)NC(=O)[C@H](CO)NC(=O)[C@@H](NC(=O)[C@H](Cc1ccccc1)NC(=O)[C@@H](NC(=O)CNC(=O)[C@H](Cc1c[nH]cn1)NC(=O)[C@H](C)NC(=O)CCc1c[nH]cn1)[C@@H](C)O)[C@@H](C)O)C(C)C)C(=O)N[C@@H](C)C(=O)N[C@@H](Cc1c[nH]c2ccccc12)C(=O)N[C@@H](CC(C)C)C(=O)N[C@@H](CC(C)C)C(=O)N[C@@H](CCCCNC(=O)COCCOCCNC(=O)COCCOCCNC(=O)CC[C@H](NC(=O)CC[C@H](NC(=O)CC[C@H](NC(=O)CCCCCCCCCCCCCCCCC(=O)O)C(=O)O)C(=O)O)C(=O)O)C(=O)NCC(=O)NCC(=O)NCC(=O)O [Example 11, N^ε34-[2-[2-[2-[[2-[2-[2-[[(4S)-4-carboxy-4-[[(4S)-4-carboxy-4-[[(4S)-4-carboxy-4-(17-carboxyheptadecanoylamino)butanoyl]amino]butanoyl]amino]butanoyl]amino]ethoxy]ethoxy]acetyl]amino]ethoxy]ethoxy]acetyl]-[Imp7,His9,Lys18,Arg23,Arg26,Leu33,Gly36]-GLP-1-(7-37)-peptide] (Desaminohistidyl-AHGTFTSDVSKYLEGRAAREFIAWLLK([AEEA-AEEA-γGlu-γGlu-γGlu-C18 diacid])GGG-OH)",0.9
2,"CC[C@H](C)[C@H](NC(=O)[C@H](Cc1ccccc1)NC(=O)[C@H](CCC(=O)O)NC(=O)[C@H](CCCNC(=N)N)NC(=O)[C@H](C)NC(=O)[C@H](C)NC(=O)[C@H](CCC(N)=O)NC(=O)[C@H](CCC(=O)O)NC(=O)[C@H](CCC(=O)O)NC(=O)[C@H](CC(C)C)NC(=O)[C@H](Cc1ccc(O)cc1)NC(=O)[C@H](CCCCN)NC(=O)[C@H](CO)NC(=O)[C@@H](NC(=O)[C@H](CC(=O)O)NC(=O)[C@H](CO)NC(=O)[C@@H](NC(=O)[C@H](Cc1ccccc1)NC(=O)[C@@H](NC(=O)CNC(=O)[C@H](Cc1c[nH]cn1)NC(=O)C1(NC(=O)CCc2c[nH]cn2)CCC1)[C@@H](C)O)[C@@H](C)O)C(C)C)C(=O)N[C@@H](C)C(=O)N[C@@H](Cc1c[nH]c2ccccc12)C(=O)N[C@@H](CC(C)C)C(=O)N[C@@H](CC(C)C)C(=O)N[C@@H](CCCCN)C(=O)N[C@@H](CCCCNC(=O)CNC(=O)[C@H](CO)NC(=O)[C@H](CCC(=O)O)NC(=O)CNC(=O)[C@H](CO)NC(=O)CC[C@H](NC(=O)CC[C@H](NC(=O)CCCCCCCCCCCCCCCCC(=O)O)C(=O)O)C(=O)O)C(N)=O [Example 2, N^ε35-[2-[[(2S)-2-[[(2S)-4-carboxy-2-[[2-[[(2S)-2-[[(4S)-4-carboxy-4-[[(4S)-4-carboxy-4-(17-carboxyheptadecanoylamino)butanoyl]amino]butanoyl]amino]-3-hydroxypropanoyl]amino]acetyl]amino]butanoyl]amino]-3-hydroxypropanoyl]amino]acetyl]-[Imp7,Acb8,His9,Lys18,Glu22,Arg26,Leu33,Lys35]-GLP-1-(7-35)-peptide amide] (I: Desaminohistidyl-[Ac4c]HGTFTSDVSKYLEEQAAREFIAWLLKK-NH2 / II: {C18 diacid-γGlu-γGlu}-SGESG; amide I:28-II:C)",0.1
3,"CC[C@H](C)[C@H](NC(=O)[C@H](Cc1ccccc1)NC(=O)[C@H](CCC(=O)O)NC(=O)[C@H](CCCNC(=N)N)NC(=O)[C@H](C)NC(=O)[C@H](C)NC(=O)[C@H](CCCNC(=N)N)NC(=O)[C@H](CCCCNC(=O)CC[C@H](NC(=O)CC[C@H](NC(=O)COCCOCCNC(=O)COCCOCCNC(=O)CC[C@H](NC(=O)CCCCCCCCCCCCCCCCC(=O)O)C(=O)O)C(=O)O)C(=O)O)NC(=O)[C@H](CCC(=O)O)NC(=O)[C@H](CC(C)C)NC(=O)[C@H](Cc1ccc(O)cc1)NC(=O)[C@H](CCCCN)NC(=O)[C@H](CO)NC(=O)[C@@H](NC(=O)[C@H](CC(=O)O)NC(=O)[C@H](CO)NC(=O)[C@@H](NC(=O)[C@H](Cc1ccccc1)NC(=O)[C@@H](NC(=O)CNC(=O)[C@H](Cc1c[nH]cn1)NC(=O)C1(NC(=O)CCc2c[nH]cn2)CCC1)[C@@H](C)O)[C@@H](C)O)C(C)C)C(=O)N[C@@H](C)C(=O)N[C@@H](Cc1c[nH]c2ccccc12)C(=O)N[C@@H](CC(C)C)C(=O)N[C@@H](CC(C)C)C(=O)N[C@@H](CCCCN)C(=O)N[C@H](C(N)=O)[C@@H](C)O [Example 32, N^ε22-[(4S)-4-carboxy-4-[[(4S)-4-carboxy-4-[[2-[2-[2-[[2-[2-[2-[[(4S)-4-carboxy-4-(17-carboxyheptadecanoylamino)butanoyl]amino]ethoxy]ethoxy]acetyl]amino]ethoxy]ethoxy]acetyl]amino]butanoyl]amino]butanoyl]-[Imp7,Acb8,His9,Lys18,Lys22,Arg23,Arg26,Leu33,Thr35]-GLP-1-(7-35)-peptide amide] (Desaminohistidyl-[Ac4c]HGTFTSDVSKYLEK([γGlu-γGlu-AEEA-AEEA-γGlu-C18 diacid])RAAREFIAWLLKT-NH2)",0.2
4,"CC[C@H](C)[C@H](NC(=O)[C@H](Cc1ccccc1)NC(=O)[C@H](CCC(=O)O)NC(=O)[C@H](CCCNC(=N)N)NC(=O)[C@H](C)NC(=O)[C@H](C)NC(=O)[C@H](CCC(N)=O)NC(=O)[C@H](CCC(=O)O)NC(=O)[C@H](CCC(=O)O)NC(=O)[C@H](CC(C)C)NC(=O)[C@H](Cc1ccc(O)cc1)NC(=O)[C@H](CCCCN)NC(=O)[C@H](CO)NC(=O)[C@@H](NC(=O)[C@H](CC(=O)O)NC(=O)[C@H](CO)NC(=O)[C@@H](NC(=O)[C@H](Cc1ccccc1)NC(=O)[C@@H](NC(=O)CNC(=O)[C@H](Cc1c[nH]cn1)NC(=O)C(C)(C)NC(=O)CCc1c[nH]cn1)[C@@H](C)O)[C@@H](C)O)C(C)C)C(=O)N[C@@H](C)C(=O)N[C@@H](Cc1c[nH]c2ccccc12)C(=O)N[C@@H](CC(C)C)C(=O)N[C@@H](CC(C)C)C(=O)N[C@@H](CCCCNC(=O)COCCOCCNC(=O)COCCOCCNC(=O)CC[C@H](NC(=O)CC[C@H](NC(=O)CCCCCCCCCCCCCCCCCCC(=O)O)C(=O)O)C(=O)O)C(=O)N[C@H](C(N)=O)[C@@H](C)O [Example 40, N^ε34-[2-[2-[2-[[2-[2-[2-[[(4S)-4-carboxy-4-[[(4S)-4-carboxy-4-(19-carboxynonadecanoylamino)butanoyl]amino]butanoyl]amino]ethoxy]ethoxy]acetyl]amino]ethoxy]ethoxy]acetyl]-[Imp7,Aib8,His9,Lys18,Glu22,Arg26,Leu33,Thr35]-GLP-1-(7-35)-peptide amide] (Desaminohistidyl-[Aib]HGTFTSDVSKYLEEQAAREFIAWLLK([AEEA-AEEA-γGlu-γGlu-C20 diacid])T-NH2)",0.4
